Source: PubChem BioAssay AID977606 (Broad Institute, 2014)
Several values for one entry are separate records, joined by “and”; a condition that tells them apart may be missing. Equal values may be shown once. Activity calls are given as the source filed them. No rule for the calls is given here.

These compounds were tested on INS-1E Gaussia luciferase insulin secretion, no glucose, luminescence (assay: insulin secretion activators without glucose, dose response, counter-screen for glucose-dependent insulin secretion activators, cell-based, INS-1E, Gaussia luciferase, luminescence, cherry-pick (AID 977606)).
Compound `CCOC(=O)Cn1c(=NC(=O)c2nc3ccccc3s2)sc2cc(S(N)(=O)=O)ccc21` has an AC40 of 18.3 µM.
`CCOC(=O)c1oc2ccccc2c1NC(=O)c1cccs1` showed an AC40 of 12.6 µM.
With `COC(=O)C1=C(C)N(C)C(=NCc2cccc(C(F)(F)F)c2)NC1c1ccc(C(F)(F)F)cc1` (configuration not stated) the AC40 was 4.7 µM.
Compound `COc1cc(CN2C[C@@H]3N[C@H](C2)C3c2ccc(/C=C/c3ccccc3)cc2)cc(OC)c1` (some centres not stated) has an AC40 of 1.76 µM.
For `Cc1cccc(S(=O)(=O)N2C[C@@H]3N[C@H](C2)C3c2ccc(-c3ccccc3F)cc2)c1` (some centres not stated), the AC40 was 2.91 µM.
`CCOC(=O)c1c(C)n(-c2ccc(C)cc2)c2ccc(OCC(O)CN3CCN(C)CC3)cc12` (configuration not stated) gave an AC40 of 17.2 µM.
Compound `CCOC(=O)c1ccccc1NC(=O)c1n[nH]c(=O)c2ccccc12` has an AC40 of 3.05 µM.
For `Cc1cc(NC(=O)c2cc(-c3cccc(Cl)c3)on2)no1`, the AC40 was 20.7 µM.
With `COc1ccccc1CCn1cnc(-c2cccc(F)c2)c1C(C)C` the AC40 was 11.6 µM.
In the case of `O=C(Nc1nc2ccccc2n1Cc1ccc(Cl)cc1)c1ccco1`, the AC40 was 6.72 µM.
In the case of `O=c1c2ccc(Cl)cc2[nH]c(=S)n1CCC1=CCCCC1`, the AC40 was 2.15 µM.
For `COc1cccc(-c2cc(C(=O)Nc3cc(C)on3)no2)c1`, the AC40 was 10.7 µM.
`CNc1nc(-c2ccccc2)[n+](-c2ccc(C)cc2)s1` was tested, and the AC40 was 0.858 µM.
Work on `CC(=O)C1=C(S(=O)(=O)c2ccc(C)cc2)CS(=O)(=O)C1` yielded an AC40 of 0.613 µM.
`CCCNC(=O)Cn1sc2nc(C)cc(C)c2c1=O` gave an AC40 of 2.31 µM.
Compound `Cc1nnn(-c2nonc2N)c1C(=O)N/N=C/c1cccc2ccccc12` has an AC40 of 6.5 µM.
For `O=C(Nc1ccc2ccccc2c1)c1cccc2ccccc12`, the AC40 was 3.25 µM.
With `OC1(C#Cc2c(-c3ccsc3)sc3ccccc23)CCCCC1` the AC40 was 13.3 µM.
`O=C(Nc1ccccc1)c1nnsc1S(=O)(=O)c1ccc(Cl)cc1` gave an AC40 of 0.403 µM.
Work on `COc1ccc(NC(=O)Cn2cnc3c(cnn3-c3ccc(C)c(C)c3)c2=O)c(OC)c1` yielded an AC40 of 3.41 µM.
In the case of `CN(C)CCOc1ccc(-c2c(-c3ccsc3)sc3ccccc23)cc1`, the AC40 was 5.7 µM.
`Cc1cc(C)nc(NS(=O)(=O)c2ccc(N/C=C/C(=O)c3ccc(Cl)c(Cl)c3)cc2)n1` gave an AC40 of 4.44 µM.
`OC(c1ccccc1)(c1ccccc1)C1CCN(CCCOc2cccc(OC(F)(F)F)c2)CC1` was tested, and the AC40 was 3.95 µM.
With `CCCCCCN1C[C@H](n2cc(COC(=O)c3ccccc3)nn2)[C@@H](O)C[C@@H]1c1ccc(C)cc1` the AC40 was 8.37 µM.
`CC(C)CC#Cc1ccc2c(c1)O[C@@H](CN(C)Cc1cccc(F)c1)[C@H](C)CN([C@@H](C)CO)S2(=O)=O` showed an AC40 of 12.7 µM.
In the case of `Cc1cccc(-c2ccc(C3[C@@H]4CN(Cc5cccc(F)c5)C[C@H]3N4)cc2)c1` (some centres not stated), the AC40 was 4.33 µM and 2.3 µM.
`COc1ccccc1CCn1cnc(-c2ccc(F)cc2)c1CC(C)C` gave an AC40 of 6.41 µM.
`CNC[C@H](CC1CCCCC1)NC[C@H](Cc1ccccc1)NCCC12CC3CC(CC(C3)C1)C2` showed an AC40 of 4.43 µM.
`O=c1c2ccc(F)cc2sn1-c1ccccc1` was tested, and the AC40 was 1.45 µM.
`CCOC(=O)c1ccc(Nc2ncnc3ccc(C)cc23)cc1` was tested, and the AC40 was 11.5 µM.
With `O=C(Nc1nc(-c2ccc(-c3ccccc3)cc2)cs1)C1=COCCO1` the AC40 was 4.37 µM.
`O=C(Cn1c(COc2ccccc2)nc2ccccc21)Nc1cc(Cl)cc(Cl)c1` gave an AC40 of 5.2 µM.
`CC(C)(C(=O)N1CCC1(C)C(=O)NS(=O)(=O)c1ccc(Br)cc1)c1ccccc1` (configuration not stated) showed an AC40 of 10.3 µM.
With `COc1ccc(NC(=O)COc2ccc(C(=O)NC3CCCc4ccccc43)cc2OC)cc1` (configuration not stated) the AC40 was 5.92 µM.
`COc1ccc(C(CCNCc2ccc(OC(C)C)cc2)C(C)C)cc1` (configuration not stated) gave an AC40 of 12.3 µM.
Work on `Cc1cc2c(cc1C)CSC(c1c(O)ccc3ccccc13)SC2` yielded an AC40 of 17.9 µM.
In the case of `CCN1CCN(Cc2ccc(NC(=O)c3cccc(-c4ccc5nc(NC(=O)C6CC6)sc5n4)c3)cc2C(F)(F)F)CC1`, the AC40 was 12 µM.
`Cc1ccc(-c2cc(C(=O)NCc3cnn(C)c3)c3cc(Br)ccc3n2)cc1` gave an AC40 of 1.24 µM.
Work on `CCOC(=O)[C@]12Cc3c(cc(OC)c(OC)c3OC)[C@H]1N(C1CCCCC1)C(=O)c1cc(OC)ccc12` yielded an AC40 of 6 µM.
Work on `COc1ccc(NC(=O)Cc2c(SC)c3ccccc3n2Cc2ccccc2)cc1` yielded an AC40 of 12.5 µM.
With `O=C(Nc1cccc(Cl)c1)Nc1nc(-c2ccc(Cl)cc2)cs1` the AC40 was > 35 µM (inactive).
For `COC(=O)c1ccc(C(=O)Nc2cc(Cl)ccc2Cl)cc1NC(=O)c1ccccc1C`, the AC40 was 1.39 µM.
Work on `CCOc1ccc(Nc2oc(-c3ccc(Cl)cc3)nc2C#N)cc1` yielded an AC40 of 5.43 µM.
`CC(C)C[C@H](NC(=O)c1nc[nH]c1C(=O)NC1CCN(C(=O)OC(C)(C)C)CC1)C(=O)OC(C)(C)C` gave an AC40 of 26.4 µM.
`CN(C)CCOc1ccc(-c2c(-c3ccccc3)sc3ccccc23)cc1` showed an AC40 of 1.97 µM.
`COc1ccc(OC)c(NC(=O)c2cc3c(Cl)nc4ccccc4c3s2)c1` gave an AC40 of 6.97 µM.
Compound `Cc1c(C(=O)OCC(=O)N2CC(=O)Nc3ccccc32)oc2ccc(Br)cc12` has an AC40 of 5.24 µM.
With `CCOc1ccccc1CNC(c1ccccc1)c1ccccc1` the AC40 was 2.21 µM.
With `COC(=O)c1ccc(C2C(Oc3ccc(OC)cc3)C(=O)N2CCc2ccc(F)cc2)cc1` (configuration not stated) the AC40 was 6.79 µM.
Work on `N#Cc1cccc(-c2ccc([C@@H]3[C@@H]4CN(S(=O)(=O)c5ccc(-c6ccccc6)cc5)C[C@H]3N4)cc2)c1` yielded an AC40 of 1.89 µM.
For `C[C@H](CO)N1C[C@H](C)[C@@H](CN(C)C(=O)Cc2ccccn2)Oc2cc(C#C[C@@H](C)O)ccc2S1(=O)=O`, the AC40 was 18 µM.
Compound `OC(CNCCc1ccc(C(F)(F)F)cc1)COC(c1ccccc1)c1ccccc1` (configuration not stated) has an AC40 of 4.72 µM.
Work on `O=C(Nc1nnc(-c2ccc(F)cc2)s1)C1CCN(S(=O)(=O)c2ccc(Cl)cc2)CC1` yielded an AC40 of 5.13 µM.
`COCCn1c(=NC(=O)c2cc(Cl)sc2Cl)sc2cc(S(N)(=O)=O)ccc21` was tested, and the AC40 was 6.07 µM.
`O=c1c(C=Nc2ccc(Oc3ccccc3)cc2)c[nH]n1-c1cccc(Cl)n1` gave an AC40 of 4.28 µM.
In the case of `O=C(Nc1cccnc1)/C(N=Nc1cccnc1)=C(\O)c1ccccc1`, the AC40 was > 35 µM (inactive).
`O=c1c2ccccc2nc(-c2ccco2)n1/N=C/c1ccccc1O` showed an AC40 of 11.7 µM.
`CC(C)CC#Cc1ccc2c(c1)O[C@@H](CN(C)Cc1ccc(F)cc1)[C@H](C)CN([C@H](C)CO)S2(=O)=O` was tested, and the AC40 was 9.44 µM.
For `c1ccc(Oc2ccccc2-c2cc(NCCc3cccnc3)n3nccc3n2)cc1`, the AC40 was 13.1 µM.
Work on `CCC(=O)Nc1ccc(Cl)c(NC(=S)NC(=O)COc2ccc(Cl)cc2)c1` yielded an AC40 of 5.38 µM.
Work on `Cn1c(=O)oc2cc(S(=O)(=O)N3CCC(C(=O)Nc4ccc(OC(F)(F)F)cc4)CC3)ccc21` yielded an AC40 of 5.04 µM.
`CN(C)CCCNc1cc(C(C)(C)C)nc2c(-c3ccc(Cl)cc3)cnn12` was tested, and the AC40 was 3.6 µM.
Compound `CCCCCCCCN1C(=O)[C@@H](CC(=O)N2CCN(C(=O)c3ccco3)CC2)C[C@@]2(C(=O)OC)C1=C[C@H](C1CCCC1)O[C@@H]2C` has an AC40 of 9.46 µM.
For `COCCN(CCOC)Cc1cc(=O)oc2cc(OC)c(Cl)cc12`, the AC40 was > 35 µM (inactive).
`O=c1c2ccccc2sn1-c1ccc(F)cc1` showed an AC40 of 2.43 µM.
Compound `COC(=O)C1=C(C)N(Cc2ccc(C(F)(F)F)cc2)C(=NCc2ccccc2)NC1c1ccc(Cl)cc1` (configuration not stated) has an AC40 of 10.8 µM.
Compound `COc1cc2nc(N3CCN(c4cc(C)ccc4C)CC3)nc(N)c2cc1OC` has an AC40 of 8.68 µM.
`COc1ccnc(N2CCN(c3cccc(C(F)(F)F)c3)CC2)c1C#N` showed an AC40 of 10.1 µM.
With `CCOC(=O)c1c(NC(=O)c2ccoc2C)sc(C(=O)N(C)C)c1C` the AC40 was > 35 µM (inactive).
Compound `CC(C)(c1ccccc1)c1ccc(OCC(O)CNC2CCN(Cc3ccccc3)CC2)cc1` (configuration not stated) has an AC40 of 5.4 µM.
For `O=c1[nH]c(/C=C/c2ccc(OC(F)F)cc2)nc2c1cnn2-c1ccccc1`, the AC40 was 25.6 µM.
Work on `COc1cc(CN2CCc3ccccc3C2)ccc1O` yielded an AC40 of 13.6 µM.
With `CCN(CC)c1ccc(N=Cc2c(O)n(Cc3ccccc3)c(=O)[nH]c2=O)cc1` the AC40 was 7.08 µM.
Compound `Fc1ccccc1/C=N/n1c(C2CCCCC2)n[nH]c1=S` has an AC40 of 11.8 µM.
`CC(C)CC#Cc1ccc2c(c1)O[C@H](CN(C)C(=O)C1CCCCC1)[C@@H](C)CN([C@@H](C)CO)S2(=O)=O` gave an AC40 of 15.8 µM.
Work on `O=C(Nc1ccccc1N1CCOCC1)C1=NN(c2ccccc2)C(=O)CC1` yielded an AC40 of 24.3 µM.
`Cc1cc(C(F)F)n2ncc(C(=O)NCc3ccc(F)cc3)c2n1` was tested, and the AC40 was > 35 µM (inactive).
Work on `CN1CCN(C2Cc3ccccc3Sc3cc(C(F)(F)F)ccc32)CC1` (configuration not stated) yielded an AC40 of 7.2 µM.
In the case of `COc1ccc(CNCC(O)COc2ccc(C(C)(C)c3ccccc3)cc2)cc1` (configuration not stated), the AC40 was 6.24 µM.
With `COc1ccc(C(C)NCCC(c2ccc(OC(C)C)cc2)c2ccccc2OC)cc1` (configuration not stated) the AC40 was 4.99 µM.
In the case of `COc1ccccc1CCn1cnc(-c2ccccc2OC)c1CC(C)C`, the AC40 was 11.4 µM.
`COc1ccc(CCNC(=O)C(=O)NN=C2CCCCCCC2)cc1OC` gave an AC40 of 21.7 µM.
`Oc1ccccc1C1SC(c2ccccc2O)SC(c2ccccc2O)S1` (configuration not stated) was tested, and the AC40 was 5.36 µM.
Compound `O=S(=O)(c1ccccc1F)N1C[C@@H]2N[C@H](C1)C2c1ccc(/C=C/c2ccccc2)cc1` (some centres not stated) has an AC40 of 7.12 µM.
With `NC(N)=N/N=C/c1ccc(OCc2ccccc2)c(OCc2ccccc2)c1` the AC40 was 6.87 µM.
With `Cc1ccc(-n2ncc3c(=O)n(CC(=O)Nc4cccc(Cl)c4)cnc32)cc1C` the AC40 was 6.76 µM.
Compound `COc1ccc(C)c2sc(N(CCCN(C)C)C(=O)c3ccc(S(=O)(=O)N4CCc5ccccc5C4)cc3)nc12` has an AC40 of 3.62 µM.
`Cc1ccc(-c2ccc(C3[C@@H]4CN(C(=O)Nc5ccc(C(F)(F)F)cc5)C[C@H]3N4)cc2)cc1` (some centres not stated) was tested, and the AC40 was 1.17 µM and 2.2 µM.
Compound `Cc1cc(Cl)ccc1Oc1nc(-c2ccccc2)ncc1S(C)(=O)=O` has an AC40 of 3.04 µM.
Compound `CN(C)C=NC(=O)c1ccc(N2CCN(c3ncc(C(F)(F)F)cc3Cl)CC2)cc1` has an AC40 of 5.6 µM.
For `OC(c1ccccc1)(c1ccccc1)C1CCN(CCCOc2ccc(-c3ccc(F)cc3F)cc2)CC1`, the AC40 was 1.29 µM.
`N#Cc1ccc(-c2ccc([C@@H]3[C@H]4CNC[C@@H]3N4Cc3cc(F)ccc3F)cc2)cc1` was tested, and the AC40 was 12.8 µM.
Work on `CC1CCN(S(=O)(=O)c2ccc(C(=O)OCc3ccc4c(c3)OCO4)cc2)CC1` yielded an AC40 of 11.4 µM.
With `CCCCc1ccc(NC(=O)COc2ccc(C(=O)Nc3ccccc3OCC)cc2)cc1` the AC40 was 1.3 µM.
With `COc1cc2sc3ccc(C#Cc4ccc(N)cc4)cc3c(=O)c2cc1OC` the AC40 was 19 µM.
For `COc1ccc(C)cc1NCc1cc(=O)oc2cc(-c3ccccc3)c(O)cc12`, the AC40 was 23.6 µM.
`NC(=O)c1ccc2nc(-c3ccccc3)c(-c3ccccc3)nc2c1` gave an AC40 of 19.8 µM.
`N#Cc1c(-c2cccc(Br)c2)cc(-c2cccnc2)nc1N` showed an AC40 of 8.34 µM.
Compound `COc1ccc(-n2c(-c3ccc(Cl)cc3)c[nH]c2=S)cc1` has an AC40 of 17.1 µM.
Work on `COc1ccc(-c2ccc3c(N)c(C(=O)c4ccc(OC)c(OC)c4)sc3n2)cc1` yielded an AC40 of 6.27 µM.
`C[C@@H](NC(=O)C[C@@H]1C[C@@H]2c3cc(NC(=O)Nc4ccccc4F)ccc3O[C@@H]2[C@@H](CO)O1)c1ccccc1` showed an AC40 of 34.3 µM.
`CCOc1ccc(CN2C(=O)c3ccccc3C2=O)cc1C(=O)Nc1nnc(SCC)s1` was tested, and the AC40 was 5.71 µM.
